Test results published in patent US6803379B2, “PHARMACOLOGICAL AGENTS AND METHODS OF TREATMENT THAT INACTIVATE PATHOGENIC PROKARYOTIC AND EUKARYOTIC CELLS AND VIRUSES BY ATTACKING HIGHLY CONSERVED DOMAINS IN STRUCTURAL METALLOPROTEIN AND METALLOENZYME TARGETS” (priority 2002, dated 2004).
Where a name gives a salt, the structure may show the parent alone. Read-outs that look alike come from different tables or passages of the source.

Tests used:
[1] = tested on: virally infected cells; assay: Activity against virally infected cells relative to 2-thiophenecarboxylic acid; format: cell-based
[2] = tested on: cancer cells in tissue culture; assay: Activity against cancer cells in tissue culture relative to 2-thiophenecarboxylic acid
[3] = tested on: CHO cells
[4] = tested on: CHO cells; assay: Growth of CHO cells (cell counts at 24, 48 and 72 h); settings: for inhibition at 3000 µM / inhibition at 10000 µM / inhibition at 1000 µM: Cricetulus griseus, CHO, read-out: growth inhibition; for time within which growth was strongly inhibited: 1 mM and 3 mM
Procedure: Cells were plated at 1.5×10^5 cells/60-mm dish; 24 hours later, the medium was removed, and new media with or without 0.05 to 10 mM final concentrations of 2-Furoic acid were added. Cell counts were determined at 24, 48 and 72 h after the addition of 2-Furoic acid; each point is the average of triplicate measurements from 3 cultures.

[5] = LD-50; settings: in vivo
[6] = tested on: human breast adenocarcinoma MDA-468 cell; assay: Growth and viability of breast adenocarcinoma MDA-468 cells; format: cell-based; settings: 50 μM
Procedure: These floating cells were not viable. Within 48 h of treatment there was greater than 90% decrease in cell number.

[7] = tested on: many different cancer cell lines; assay: Cytotoxicity in cancer cell lines in vitro; settings: uM concentrations
[8] = target: LTA4 hydrolase (Homo sapiens, UniProt P09960); settings: cited from earlier work
[9] = tested on: Human Foreskin (HF) cells infected with HSV-2-strain G; format: cell-based

Sequence of LTA4 hydrolase (P09960 whole entry): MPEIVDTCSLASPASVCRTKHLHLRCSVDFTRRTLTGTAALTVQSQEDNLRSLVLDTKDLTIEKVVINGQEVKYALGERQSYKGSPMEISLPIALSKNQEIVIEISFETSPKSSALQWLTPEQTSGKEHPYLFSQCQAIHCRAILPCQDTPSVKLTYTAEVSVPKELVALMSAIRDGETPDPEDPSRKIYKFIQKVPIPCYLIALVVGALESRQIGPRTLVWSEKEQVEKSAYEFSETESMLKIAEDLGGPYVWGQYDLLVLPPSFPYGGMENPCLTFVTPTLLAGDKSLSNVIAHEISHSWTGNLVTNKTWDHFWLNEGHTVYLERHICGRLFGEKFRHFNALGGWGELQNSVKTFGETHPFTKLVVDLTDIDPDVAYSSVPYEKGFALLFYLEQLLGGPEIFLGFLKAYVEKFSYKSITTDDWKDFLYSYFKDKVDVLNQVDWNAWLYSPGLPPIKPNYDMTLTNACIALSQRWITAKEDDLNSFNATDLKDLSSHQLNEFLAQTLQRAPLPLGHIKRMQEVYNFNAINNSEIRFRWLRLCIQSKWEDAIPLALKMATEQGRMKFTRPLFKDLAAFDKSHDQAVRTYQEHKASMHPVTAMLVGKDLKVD

## CCCCc1csc(C(=O)NN)c1Cl
[1]
  times more active than 2-thiophenecarboxylic acid: 7-10 times
[2]
  times more active than 2-thiophenecarboxylic acid: 7-10 times

## O=C(O)c1ccco1 [2-Furoic acid]
[3]
  toxic effects on the cells: no significant toxic effects
[4]; CHO cells, 3 to 10 mM
  time within which growth was inhibited in a dose-dependent fashion: ≤ 24 h
[4]; 72 h
  inhibition at 3000 µM: ~20%
  inhibition at 10000 µM: ~40%

## NNC(=O)c1cccs1 [2-TCAH, 2-thiophenecarboxylic acid hydrazide]
[3]
  toxic effects on the cells: significant toxic effects
[4]; CHO cells
  time within which growth was inhibited in a dose-dependent fashion: ≤ 24 h
[4]; 72 h
  inhibition at 1000 µM: ~65%
  inhibition at 10000 µM: ~90%

## O=C(O)c1cccs1 [2-TH acid, 2-thiophenecarboxylic acid]
[5]
  LD-50: 30 grams/70 Kg

## O=C(O)c1oc(Cl)c(Cl)c1Cl [3,4,5-TFA, 3,4,5-Trichloro-2-Furoic acid]
[3]; Chinese hamster, 3 mM
  cytotoxicity and cell death, share of CHO cells: greater than 99%
[4]; CHO cells
  time within which growth was strongly inhibited: ≤ 12 h
[4]
  inhibition at 1000 µM: > 80%
  inhibition at 3000 µM: > 99%

## NN.O=C(O)c1sc(Cl)c(Cl)c1Cl [3,4,5-TTAH]
[3]; 500 uM, 24-72 hours exposure
  cytotoxicity and cell death, share of CHO cells: greater than 95%
[3]; 500 uM, 72 h, trypan blue dye exclusion test
  detached cells destroyed by the agent: > 99.9%
[4]; 500 uM
  growth of CHO cells: strongly inhibited

## O=C(O)c1sc(Cl)c(Cl)c1Cl [3,4,5-TTA]
[4]; CHO cells
  time within which growth was strongly inhibited: ≤ 6 h
[4]
  inhibition at 1000 µM: > 98%
  inhibition at 3000 µM: 100%

## CCCCc1csc(C(=O)NN)c1 [4-B-2-TAH, 4-butyl-2-Thiophenecarboxylic Acid Hydrazide]
[6]; after 12 hours of treatment
  cell number: no further increase in cell number
[6]; within 48 h of treatment
  decrease in cell number: greater than 90%
[7]
  cytotoxic effects: pronounced cytotoxic effects

## C[C@H](CS)C(=O)N1CCC[C@H]1C(=O)O [Captopril]
[8]
  inhibition of LTA4 hydrolase, concentration range: low uM range

## c1ccsc1 [Thiophene, reference compound]
[4]; CHO cells, analog tested at 0.05 to 10 mM, up to 72 h
  effect on cell growth: no significant effect on cell growth

## O=C(O)c1ccccn1 [picolinic acid]
[9]
  effect on infected cells: cause apoptosis of HF infected cells
